# Results: patent US7662825B2, “N-pyrazinyl-phenylsulphonamides and their use in the treatment of chemokine mediated diseases” (AstraZeneca AB, priority 2002, dated 2010)
row,melting point,Compound
1,160 to 161 °C,"O=S(=O)(Nc1nccnc1OCc1ccc(CO)cc1)c1cccc(Cl)c1Cl [Example 111, 2,3-Dichloro-N-[3-(4-hydroxymethylphenylmethoxy)-2-pyrazinyl]benzenesulphonamide]"
2,202 to 205 °C,"O=S(=O)(Nc1ncc(Cl)nc1OCc1ccc(CNCCO)cc1)c1cccc(Cl)c1Cl [Example 110, 2,3-Dichloro-N-[5-chloro-3-{4-([2-hydroxyethylamino]methyl)phenylmethoxy}-2-pyrazinyl]benzenesulphonamide]"
3,177 to 178 °C,"COc1nc(Br)c(Cl)nc1NS(=O)(=O)c1cccc(Cl)c1Cl [Example 125, N-(5-Bromo-6-chloro-3-methoxy-2-pyrazinyl)-2,3-dichlorobenzenesulphonamide]"
4,190 to 192 °C,"COc1nc(Cl)cnc1NS(=O)(=O)c1ccccc1Cl [Example 51, 2-Chloro-N-(5-chloro-3-methoxy-2-pyrazinyl)benzenesulphonamide]"
5,181 to 182 °C,"O=S(=O)(Nc1ncc(Cl)nc1Cl)c1cccc(Cl)c1Cl [Example 74, 2,3-Dichloro-N-(3,5-dichloro-2-pyrazinyl)benzenesulphonamide]"
6,174 to 178 °C,"NC(=O)c1cnc(NS(=O)(=O)c2cccc(Cl)c2Cl)c(OCc2cccnc2)n1 [Example 135, 5-{[(2,3-Dichlorophenyl)sulphonyl]amino}-6-(3-pyridinylmethoxy)-2-pyrazinecarboxamide]"
7,198 to 199 °C,"CNCc1ccc(COc2nccnc2NS(=O)(=O)c2cccc(Cl)c2Cl)o1 [Example 183, 2,3-Dichloro-N-[3-(5-methylaminomethyl-2-furanylmethoxy)-2-pyrazinyl]benzenesulphonamide]"
8,141 to 142 °C,"COc1nc(SC)cnc1NS(=O)(=O)c1cccc(Cl)c1Cl [Example 80, 2,3-Dichloro-N-(3-methoxy-5-methylsulphanyl-2-pyrazinyl)benzenesulphonamide]"
9,199 to 201 °C,"O=S(=O)(Nc1ncc(Cl)nc1OCc1cncc(Br)c1)c1cccc(Cl)c1Cl [Example 142, N-{3-[(5-Bromo-3-pyridinyl)methoxy]-5-chloro-2-pyrazinyl}-2,3-dichlorobenzenesulphonamide]"
10,177 to 178 °C,"O=S(=O)(Nc1ncc(Cl)nc1OCc1cccnc1)c1cccc(Cl)c1F [Example 96, 3-Chloro-N-[5-chloro-3-(3-pyridinylmethoxy)-2-pyrazinyl]-2-fluorobenzenesulphonamide]"
11,237 to 238 °C,"COc1nc(S(C)(=O)=O)cnc1NS(=O)(=O)c1cccc(Cl)c1Cl [Example 203, 2,3-Dichloro-N-(5-methanesulphonyl-3-methoxy-2-pyrazinyl)benzenesulphonamide]"
12,208 to 211 °C,"COc1nc(Br)cnc1NS(=O)(=O)c1ccc(F)c(Cl)c1Cl [Example 185, N-(5-Bromo-3-methoxypyrazinyl)-2,3-dichloro-4-fluorobenzenesulphonamide]"
13,145 to 146 °C,"C=CCOc1nc(Cl)cnc1NS(=O)(=O)c1cccc(Cl)c1Cl [Example 187, N-(3-Allyloxy-5-chloro-2-pyrazinyl)-2,3-dichlorobenzenesulphonamide]"
14,177 to 178 °C,"O=S(=O)(Nc1ncc(Cl)nc1OCc1ccc(CO)cc1)c1cccc(Cl)c1Cl [Example 109, 2,3-Dichloro-N-[5-chloro-3-(4-hydroxymethylphenylmethoxy)-2-pyrazinyl]benzenesulphonamide]"
15,140 to 141 °C,"CSCCOc1nc(Cl)cnc1NS(=O)(=O)c1cccc(Cl)c1Cl [Example 90, 2,3-Dichloro-N-[5-chloro-3-(2-methylsulphanylethoxy)-2-pyrazinyl]benzenesulphonamide]"
16,153 to 155 °C,"COc1nc(NC(=O)CO)cnc1NS(=O)(=O)c1cccc(Cl)c1Cl [Example 200, N-[5-(2,3-Dichlorophenylsulphonylamino)-6-methoxy-2-pyrazinyl]-2-hydroxyacetamide]"
17,163 to 164 °C,"COc1nc(SCC(N)=O)cnc1NS(=O)(=O)c1cccc(Cl)c1Cl [Example 169, 2-[5-(2,3-Dichlorobenzenesulphonylamino)-6-methoxy-2-pyrazinylsulphanyl]acetamide]"
18,156 to 157 °C,"COc1nc(Cl)cnc1NS(=O)(=O)c1cccc(Cl)c1F [Example 122, 3-Chloro-N-(5-chloro-3-methoxy-2-pyrazinyl)-2-fluorobenzenesulphonamide]"
19,154 to 156 °C,"COc1nc(SCc2ncon2)cnc1NS(=O)(=O)c1cccc(Cl)c1Cl [Example 172, 2,3-Dichloro-N-[3-methoxy-5-([1,2,4]-3-oxadiazolylmethylsulphanyl)-2-pyrazinyl]benzenesulphonamide]"
20,183 to 184 °C,"COc1nccnc1NS(=O)(=O)c1cccc(Cl)c1Cl [Example 30, 2,3-Dichloro-N-(3-methoxy-2-pyrazinyl)benzenesulphonamide]"
21,189 to 191 °C,"COc1nc(Cl)c(Cl)nc1NS(=O)(=O)c1ccc(Cl)c(Cl)c1 [Example 64, 3,4-Dichloro-N-(5,6-dichloro-3-methoxy-2-pyrazinyl)benzenesulphonamide]"
22,199 to 200 °C,"O=S(=O)(Nc1ncc(Br)nc1OC[C@@H]1CCCN1)c1cccc(Cl)c1Cl [Example 133, N-[5-Bromo-3-[(2S)-2-pyrrolidinylmethoxy]-2-pyrazinyl]-2,3-dichlorobenzenesulphonamide]"

row,melting point,Compound
1,147 to 148 °C,"O=S(=O)(Nc1ncc(Cl)nc1OCc1ccccn1)c1cccc(Cl)c1Cl [Example 89, 2,3-dichloro-N-[5-chloro-3-(2-pyridinylmethoxy)-2-pyrazinyl]benzenesulphonamide]"
2,96 to 97 °C,"CCOc1cnc(NS(=O)(=O)c2cccc(Cl)c2Cl)c(OC)n1 [Example 166, 2,3-Dichloro-N-(5-ethoxy-3-methoxy-2-pyrazinyl)benzenesulphonamide]"
3,160 to 161 °C,"Cc1cnc(NS(=O)(=O)c2cccc(Cl)c2Cl)c(OCc2cccnc2)n1 [Example 24, 2,3-Dichloro-N-[5-methyl-3-(3-pyridinylmethoxy)-2-pyrazinyl]benzenesulphonamide]"
4,177 to 178 °C,"COC(=O)c1nccnc1NS(=O)(=O)c1cccc(Cl)c1Cl [Example 124, 3-{[(2,3-Dichlorophenyl)sulphonyl]amino}pyrazine-2-carboxylic acid, methyl ester]"
5,172 to 173 °C,"Cc1nc(COc2nc(Cl)cnc2NS(=O)(=O)c2cccc(Cl)c2Cl)co1 [Example 144, 2,3-Dichloro-N-{5-chloro-3-[(2-methyl-4-oxazolyl)methoxy]-2-pyrazinyl}benzenesulphonamide]"
6,138 to 140 °C,"COc1nc(SCC(=O)O)cnc1NS(=O)(=O)c1cccc(Cl)c1Cl [Example 83, [5-(2,3-Dichlorobenzenesulphonylamino)-6-methoxy-2-pyrazinylsulphanyl]acetic acid]"
7,223 to 228 °C,Cc1cnc(NS(=O)(=O)c2cccc(Cl)c2Cl)c(OCc2ccc[n+]([O-])c2)n1 [Example 86]
8,126 to 127 °C,"COc1ncc(Cl)nc1NS(=O)(=O)c1cccc(Cl)c1 [Example 39, 3-Chloro-N-(6-chloro-3-methoxy-2-pyrazinyl)benezenesulphonamide]"
9,151 to 152 °C,"COc1cccc(S(=O)(=O)Nc2nccnc2OC)c1Cl [Example 132, 2-Chloro-3-methoxy-N-(3-methoxy-2-pyrazinyl)benzenesulphonamide]"
10,170 to 171 °C,"COc1nc(Cl)cnc1NS(=O)(=O)c1ccc(Cl)cc1Cl [Example 54, N-(5-Chloro-3-methoxy-2-pyrazinyl)-2,4-dichlorobenzenesulphonamide]"
11,138 to 139 °C,"O=S(=O)(Nc1nccnc1OCc1cccnc1)c1cccc(Cl)c1Cl [Example 29, 2,3-Dichloro-N-[3-(3-pyridinylmethoxy)-2-pyrazinyl]benzenesulphonamide]"
12,145 to 146 °C,"COc1nc(N(C)C)c(Cl)nc1NS(=O)(=O)c1cccc(Cl)c1Cl [Example 69, 2,3-Dichloro-N-[6-chloro-5-dimethylamino-3-methoxy-2-pyrazinyl]benzenesulphonamide]"
13,174 to 175 °C,"COc1ncc(Cl)nc1NS(=O)(=O)c1ccc(Cl)cc1 [Example 40, 4-Chloro-N-(6-chloro-3-methoxy-2-pyrazinyl)benezenesulphonamide]"
14,120 to 121 °C,"C=CCOc1cnc(NS(=O)(=O)c2cccc(Cl)c2Cl)c(OC)n1 [Example 139, N-(5-Allyloxy-3-methoxy-2-pyrazinyl)-2,3-dichlorobenzenesulphonamide]"
15,193 to 196 °C,"COCc1nc(OC)c(NS(=O)(=O)c2cccc(Cl)c2Cl)nc1Cl [Example 129, 2,3-Dichloro-N-[6-chloro-3-methoxy-5-(methoxymethyl)-2-pyrazinyl]benzenesulphonamide]"
16,152 to 153 °C,"COC(=O)CSc1cnc(NS(=O)(=O)c2cccc(Cl)c2Cl)c(OC)n1 [Example 82, [5-(2,3-Dichlorobenzenesulphonylamino)-6-methoxy-2-pyrazinylsulphanyl]acetic acid methyl ester]"
17,117 to 118 °C,"CCN(CC)C(=O)COc1cnc(NS(=O)(=O)c2cccc(Cl)c2Cl)c(OC)n1 [Example 204, 2-[5-(2,3-Dichlorobenzenesulphonylamino)-6-methoxy-2-pyrazinyloxy]-N,N-diethyl-acetamide]"
18,144 to 145 °C,"COc1nccnc1NS(=O)(=O)c1cccc(F)c1Cl [Example 131, 2-Chloro-3-fluoro-N-(3-methoxy-2-pyrazinyl)benzenesulphonamide]"
19,146 to 148 °C,COC(=O)CCSc1cnc(NS(=O)(=O)c2cccc(Cl)c2Cl)c(OC)n1 [Example 117]
20,133 to 135 °C,"COc1nc(C)cnc1NS(=O)(=O)c1cccc(Cl)c1C [Example 43, 3-Chloro-N-(3-methoxy-5-methyl-2-pyrazinyl)-2-methylbenezenesulphonamide]"
21,169 to 170 °C,"COc1nc(-c2ccc(F)cc2F)cnc1NS(=O)(=O)c1cccc(Cl)c1Cl [Example 81, 2,3-Dichloro-N-[5-(2,4-difluorophenyl)-3-methoxy-2-pyrazinyl]benzenesulphonamide]"
